Results on four compounds are retold here after patent US20090023589A1, “METHODS FOR IDENTIFYING CONDITIONS AFFECTING A CELL STATE” (priority 2004, published 2009).

For this test, the system named is HL-60 cells. Briefly: Surface marker expression profile of HL-60 cells after combinatorial differentiation (flow cytometry, percent positive cells, hierarchical clustering). The class given is cell-based. As to conditions: for expression of cell surface marker CD 125w: med concentrations, sodium butyrate at pH 7.8; for monocyte signature profile (CD 14hi, CD11b/Mac-1hi, CD 13+, CD66b-): binary and ternary combinations, clustering on myeloid markers. In general terms: A flow cytometer gives signals particle by particle.

Procedure: HL-60 cells were used to study what factors are involved in cellular differentiation. At day 0, the cells were plated in wells using a 96 well plate at a seeding density of approximately 60,000 cells, appropriate cell media was added. […] Cells were induced with the factors in Table 1 and 2. At day 4, the cells were harvested and labeled with antibody (see Table 3) for cytometry. The labeling was accomplished by washing the cells with PBS (phosphate buffered saline). Then gamma globulin was used to block non-specific binding sites. The gamma globulin treatment lasted for approximately 20 minutes at room temperatures on a rocker shaker.
The antibody cocktail concentration for each antibody used was based on manufacturer's instruction adjusted for final cell number. The antibody cocktail was incubated for 30 minutes at room temperature on rocking shaker. Following the incubation, the cells were washed using PBS. The cells were resuspended in 1% ultrapure methanol free formaldehyde and refrigerated until analysis. The cells were analyzed using a BD FACSCalibur equipped with a high throughput sampler (HTS) which has a dual laser excitation line: argon (488 nm) and red diode (635 nm).
The positive control for these experiments was 100 nm vitamin D3 plus CD 14 antibody. The negative controls were (1) untreated cells plus antibody cocktails located on the plates; and (2) fresh untreated cells plus antibody cocktails located on separate plates.
HL-60 cells were exposed to five well studied chemical differentiation factors (dimethylsulfoxide (DMSO), Vitamin D3, Phorbol-12-myristate-13-acetate (PMA), Sodium butyrate+pH 7.8, and all-Trans Retinoic Acid (ATRA)) known to promote differentiation along three distinct pathways (neutrophil, monocyte, eosinophil/basophil) within the myeloid lineage. Differentiation was induced by creating binary and ternary five factor combinations using the five factors at three concentrations for the binary experiment and two concentrations for the ternary experiment.
To observe experiment-wide profiles of marker expression, we used the percentage of positive cells for all markers and constructed a profile for each combinatorial treatment. Hierarchical clustering orders the data so that the most similar profile are next to each other in the plot.
To refine cluster analysis with relevant information, one can choose specific cell surface markers. In order to test the validity of the experiment, we clustered based on cell surface markers known to be expressed in the myeloid lineage: CD66b, CD11b/Mac-1, CD13+CD 14 (FIG. 8 a,b). Cells which have differentiated toward the monocytic lineage have a CD 14^hi, CD11b/Mac-1^hi, CD 13^+, CD66b^− expression profile.

With `CCCC(=O)[O-].[Na+]` [sodium butyrate, Sodium butyrate], the “expression of cell surface marker CD 125w” value is “neither DMSO^med nor sodium butyrate^med, pH 7.8 alone produced cells positive for CD 125w”.

Regarding `C=C1CC[C@H](O)C/C1=C/C=C1\CCC[C@]2(C)[C@@H]([C@H](C)CCCC(C)C)CC[C@@H]12` [Vitamin D3], the “monocyte signature profile (CD 14hi, CD11b/Mac-1hi, CD 13+, CD66b-)” value is recorded as “contributed to the monocyte signature profile”.

In the case of `C[S+](C)[O-]` [DMSO, dimethylsulfoxide], the “expression of cell surface marker CD 125w” value was “neither DMSO^med nor sodium butyrate^med, pH 7.8 alone produced cells positive for CD 125w”.

For `CCCCCCCCCCCCCC(=O)O[C@@H]1[C@@H](C)[C@@]2(O)[C@@H](C=C(CO)C[C@]3(O)C(=O)C(C)=C[C@@H]23)[C@@H]2C(C)(C)[C@]12OC(C)=O` [PMA, Phorbol-12-myristate-13-acetate], the “monocyte signature profile (CD 14hi, CD11b/Mac-1hi, CD 13+, CD66b-)” value is on record as “contributed to the monocyte signature profile”.
